# Values quoted from earlier work in patent publication US12274284B2, “High-energy food supplement based on inverted sugars and ergogenic products for use in physical activity and method for producing same” (priority 2019, dated 2025).
# Where two headings read alike, the source gives them in different places.
# Columns and labels:
# [1] = oral administration
# [2] = 1 to 6 g/day for a maximum of six months
# [3] = 300 mg/day
# oxidative stress markers = settings: 300 mg/kg, 15 days, mice
# action of insulin = settings: 5%, 8 weeks, mice
# [4] = not given; remark: listed apart in the source
# [5] = tested on: muscle carnosine concentrations; settings: 4-6 g/day
molecule,measurement,setting,value
"Cn1c(=O)c2c(ncn2C)n(C)c1=O [Caffeine, 1,3,7 trimethylxanthine]",bioavailability,[1],approximately 100%
"C[N+](C)(C)C[C@H](O)CC(=O)[O-] [carnitine, L-carnitine]",adverse effect or intoxication,[2],no adverse effect or intoxication
same,plasma concentrations of carnitine,[2],considerably improved the plasma concentrations of carnitine
COC1=C(OC)C(=O)C(C/C=C(\C)CC/C=C(\C)CC/C=C(\C)CC/C=C(\C)CC/C=C(\C)CC/C=C(\C)CC/C=C(\C)CC/C=C(\C)CC/C=C(\C)CCC=C(C)C)=C(C)C1=O [coenzyme Q10],feeling of tiredness and physical performance during effort tests,[3],reduced the feeling of tiredness and improved physical performance
"CC(=O)C(=O)O [pyruvate, calcium pyruvate]",patients with a fat loss,"0.05 g/Kg/day after 0.1 g/kg/day for 10 days, 13 to 38 days",79.6%
same,patients with a reduction in skinfolds,in vivo,89.8%
same,patients with a reduction in the abdomen circumference,in vivo,74%
"NCCS(=O)(=O)O [taurine, 2-aminoethanesulfonic acid]","superoxide radicals, lipid peroxidation, carbonylation",oxidative stress markers,"reduced the production of superoxide radicals, lipid peroxidation, and carbonylation"
same,action of insulin in liver and skeletal muscle,action of insulin,boosted the action of insulin in the liver and the skeletal muscle
O=C1O[C@H]([C@@H](O)CO)C(O)=C1O [vitamin C],tissue concentration of the vitamin,[4]; 400 mg/day,increased the tissue concentration of the vitamin
NCCC(=O)O [β-alanine],increase in muscle carnosine concentrations,[5]; after 10 weeks,80%
same,increase in muscle carnosine concentrations,[5]; following 4 weeks,≤ 64%
vitamin E,blood plasma concentration of a protein associated with muscle injury,[4]; 1000 UI/day,reduced the concentration of a protein associated with muscle injury in the blood plasma
